Assays:
Format in all cases: functional, cell-based
HFF [1] = assay: Inhibitory concentration against human cytomegalovirus strain Ad169 in human foreskin fibroblasts
Vero = assay: Inhibitory concentration against herpes simplex 1 strain Patton in vero cells; settings: Chlorocebus sabaeus
HFF [2] = assay: Inhibitory concentration against human respiratory syncytial virus strain A2 in human foreskin fibroblasts

SMILES | IC50 (HFF [1]) [µM] | IC50 (Vero) [µM] | IC50 (HFF [2]) [µM]
NC(=O)CN(CC(N)=O)S(=O)(=O)c1cccc(Nc2cc(Nc3ccc(-c4ccc(Nc5cc(Nc6cccc(S(=O)(=O)N(CC(N)=O)CC(N)=O)c6)nc(Nc6cccc(S(=O)(=O)N(CC(N)=O)CC(N)=O)c6)n5)cc4S(=O)(=O)O)c(S(=O)(=O)O)c3)nc(Cl)n2)c1 | 7 | 18.9 | 1.8
NC(=O)CCN(CCC(N)=O)S(=O)(=O)c1cccc(Nc2nc(Nc3cccc(S(=O)(=O)N(CCC(N)=O)CCC(N)=O)c3)nc(Nc3ccc(/C=C/c4ccc(Nc5nc(Nc6cccc(S(=O)(=O)N(CCC(N)=O)CCC(N)=O)c6)nc(Nc6cccc(S(=O)(=O)N(CCC(N)=O)CCC(N)=O)c6)n5)cc4S(=O)(=O)O)c(S(=O)(=O)O)c3)n2)c1 |  |  | 0.15
NC(=O)CN(CC(N)=O)S(=O)(=O)c1cccc(Nc2nc(Nc3cccc(S(=O)(=O)N(CC(N)=O)CC(N)=O)c3)nc(Nc3ccc(-c4ccc(Nc5nc(Nc6cccc(S(=O)(=O)N(CC(N)=O)CC(N)=O)c6)nc(Nc6cccc(S(=O)(=O)N(CC(N)=O)CC(N)=O)c6)n5)cc4S(=O)(=O)O)c(S(=O)(=O)O)c3)n2)c1 [RF-1461] | 2.55 | 7.72 | 0.05
NC(=O)CCCN(CCCC(N)=O)S(=O)(=O)c1cccc(Nc2nc(Nc3cccc(S(=O)(=O)N(CCCC(N)=O)CCCC(N)=O)c3)nc(Nc3ccc(-c4ccc(Nc5nc(Nc6cccc(S(=O)(=O)N(CCCC(N)=O)CCCC(N)=O)c6)nc(Nc6cccc(S(=O)(=O)N(CCCC(N)=O)CCCC(N)=O)c6)n5)cc4S(=O)(=O)O)c(S(=O)(=O)O)c3)n2)c1 |  |  | 0.1
NC(=O)CCN(CCC(N)=O)S(=O)(=O)c1cccc(Nc2nc(Cl)nc(Nc3ccc(-c4ccc(Nc5nc(Nc6cccc(S(=O)(=O)N(CCC(N)=O)CCC(N)=O)c6)nc(Nc6cccc(S(=O)(=O)N(CCC(N)=O)CCC(N)=O)c6)n5)cc4S(=O)(=O)O)c(S(=O)(=O)O)c3)n2)c1 | 16.8 |  | 0.25
O=S(=O)(O)c1cc(Nc2cc(Nc3cccc(S(=O)(=O)N(CCO)CCO)c3)nc(Nc3cccc(S(=O)(=O)N(CCO)CCO)c3)n2)ccc1-c1ccc(Nc2cc(Nc3cccc(S(=O)(=O)N(CCO)CCO)c3)nc(Nc3cccc(S(=O)(=O)N(CCO)CCO)c3)n2)cc1S(=O)(=O)O | 4.4 | 16.8 | 0.82
NC(=O)CN(CC(N)=O)S(=O)(=O)c1cccc(Nc2cc(Nc3ccc(-c4ccc(Nc5nc(Nc6cccc(S(=O)(=O)N(CC(N)=O)CC(N)=O)c6)ncc5Cl)cc4S(=O)(=O)O)c(S(=O)(=O)O)c3)nc(Cl)n2)c1 | 13.8 | 25.4 | 3.5
NC(=O)CCN(CCC(N)=O)S(=O)(=O)c1cccc(Nc2nc(Nc3cccc(S(=O)(=O)N(CCC(N)=O)CCC(N)=O)c3)nc(Nc3ccc(-c4ccc(Nc5nc(Nc6cccc(S(=O)(=O)N(CCC(N)=O)CCC(N)=O)c6)nc(Nc6cccc(S(=O)(=O)N(CCC(N)=O)CCC(N)=O)c6)n5)cc4S(=O)(=O)O)c(S(=O)(=O)O)c3)n2)c1 |  |  | 0.08
NC(=O)CN(CC(N)=O)S(=O)(=O)c1cccc(Nc2nc(Cl)cc(Nc3ccc(-c4ccc(Nc5cc(Cl)nc(Cl)n5)cc4S(=O)(=O)O)c(S(=O)(=O)O)c3)n2)c1 | 24.9 | 47.2 | 16.7
O=S(=O)(O)c1cc(Nc2nc(Nc3cccc(S(=O)(=O)N(CCO)CCO)c3)nc(Nc3cccc(S(=O)(=O)N(CCO)CCO)c3)n2)ccc1-c1ccc(Nc2nc(Nc3cccc(S(=O)(=O)N(CCO)CCO)c3)nc(Nc3cccc(S(=O)(=O)N(CCO)CCO)c3)n2)cc1S(=O)(=O)O | 2.3 | 14.7 | 0.09

— ChEMBL document CHEMBL1144253, “Pyrimidine containing RSV fusion inhibitors” (Bioorg Med Chem Lett, 2005)
